# Test results reported in patent US20110027230A1 (priority 2008, published 2011).
# Tests used:
# [1] = Body weight, mortality, dietary intake and tolerability during 10 weeks of diet; conditions: standard diet, s.c. pellet 1.5 mg 17β-estradiol, mean ± SD
# Procedure: Silymarin up to 200 mg/kg was added to each diet. The diets were orally administered for 10 weeks to 114 male C57BL/6J-APC Min/+ transgenic mice 5-6 weeks old. These mice have a mutation of the APC gene, and are prone to develop colon adenomatous polyposis. […] The statistical analysis has been performed by means of the One-way Analysis of Variance and the t-Student tests, considering statistically significant a p<0.05.
# Every oral treatment lasted 10 weeks. The treatment scheme was designed to highlight the effects of the type of fibre, associated or not with increasing amounts of silymarin.
# [2] = system: cells of the intestinal mucosa; test: BrdU cell migration along the villus axis (highest labeled cell); format: in vivo, mouse; conditions: estrogen s.c., standard diet, 24 h after BrdU
# Procedure: After 10 weeks of treatment the animals received an intraperitoneal injection of 0.75 mg of Bromodeoxyuridine (BrdU), equivalent to 30 mg/kg, to verify the migration of cells of the intestinal mucosa along the villus axis (from crypt at the bottom to the luminal tip). This parameter allows to verify the normal esfoliative physiology of the intestinal mucosa, through which the mucosa keeps itself composed of healthy and vital cells. To this end, the animals were sacrificed 24, 48 and 72 hours after injection. Small intestine and colon were taken from every sacrificed animal. The small intestine was divided into three sections: proximal, medial and distal. The proximal tract was further divided in two portions that were subsequently scraped. One of the two was dipped in RNAlater® and stored at −20° C. and the other stored in liquid nitrogen. The two samples were used for Real Time PCR and Western Blotting, respectively. The medial and distal tracts, together with the colon, were used for the histological analysis. After a 3-hours pre-fixative treatment with formol, the intestinal tracts under examination were observed under an STM1 stereomicroscope, 3× magnification. Two blinded observers measured the number and size of polyps.
# [3] = system: C57BL/6J-APC Min/+ transgenic mice; conditions: female transgenic mice, administration after ovariectomy, Weyant et al.; cited from earlier work
# [4] = system: C57BL/6J-APC Min/+ transgenic mice; test: Histological grading of dysplasia of adenomatous formations; format: in vivo, mouse; conditions: estradiol-treated animals
# Text: Histological preparations of randomly chosen intestine sections of every animal from the different treatment groups were observed by a blinded pathologist, who graded the dysplasia of the adenomatous formations present as minor, mild or severe.
# [5] = system: C57BL/6J-APC Min/+ transgenic mice; test: Number and volume of intestinal polyps in APC Min/+ mice fed different diets for 10 weeks; format: in vivo, mouse; conditions: standard diet, s.c. pellet 1.5 mg 17β-estradiol, mean ± SD
# Text: The C57BL/6J APC Min/+ transgenic mouse is an excellent animal model for FAP, because the mutated APC gene is homologous to the human one. Even in the most common form of CRC, called sporadic, 85% of cases show the somatic mutation of the APC tumour suppressor gene. Therefore, the APC mutated transgenic animal model is acknowledged as the most significant for the study of the pathogenetic mechanisms that characterise the adenomatous polyposis in the colon, both in FAP and sporadic form, and it is considered a validated animal model for the set up of nutritional and pharmacological interventions aimed at controlling the development of adenomas and at preventing their progression to CRC (Levy D B et al. Inactivation of both APC alleles in human and mouse tumors. Cancer Res 1994, 54: 5953-5958; Paulsen J E et al. Qualitative and quantitative relationship between dysplastic aberrant crypt foci and tumorigenesis in the Min/+ mouse colon). For this reason, in setting up the oral formulations object of the present invention, and in the evaluation of their safety and efficacy, the Inventors made use of the above mentioned C57BL/6J APC Min/+ transgenic mouse model. Hereafter are described the data showing the effect in C57BL/6J-APC Min/+ transgenic mice, orally fed silymarin added diets, containing soluble and insoluble fibres in different proportions with the purpose of highlighting the differentiative properties of the insoluble and indigestible fibre. […]
# After 10 weeks of treatment the animals received an intraperitoneal injection of 0.75 mg of Bromodeoxyuridine (BrdU), equivalent to 30 mg/kg, to verify the migration of cells of the intestinal mucosa along the villus axis (from crypt at the bottom to the luminal tip). […] Two blinded observers measured the number and size of polyps. […]
smiles,measurement,setting,value
"C[C@]12CC[C@@H]3c4ccc(O)cc4CC[C@H]3[C@@H]1CC[C@@H]2O [estrogen, 17β-estradiol]",Body weight at time of sacrifice,[1],24.9 ± 2.8 g
same,24 hours migration of colonocytes from the crypt to the apex of the villus,[2],47.3 ± 10.5 %
same,Intestinal adenomas after ovariectomy,[3],caused a reduction in intestinal adenomas
same,Animals showing polyps with dysplasia classifiable as severe,[4],70%
same,Number of intestinal polyps,[5],32.33 ± 12.06
same,Polyps volume,[5]; listed as Estrogen,141.78 ± 79.1 mm^3
same,Polyps volume,[5]; listed as estradiol,ineffective
